# Data from ChEMBL document CHEMBL6074692, “Design, synthesis, and evaluation of novel benzofuran and pyrazole-based derivatives as dual AChE/BuChE inhibitors with antioxidant properties for Alzheimer's disease management” (Eur J Med Chem, 2025).
# Active and inactive are the calls of the source. The rule behind the calls is not given here.
# Columns and labels:
# [1] = Toxicity in male Wistar rat assessed as HB level at 10 mg/kg, po (reference value: 13.11 +/- 0.48 g/dL); assay type: organism-based; details: in vivo
# [2] = Toxicity in male Wistar rat assessed as MPV level at 10 mg/kg, po (reference value: 7.01 +/- 0.28 fL); assay type: organism-based; details: in vivo
# [3] = Toxicity in male Wistar rat assessed as ALT level at 10 mg/kg, po (reference value: 42.18 +/- 3.35 U/L); assay type: organism-based; details: in vivo
# [4] = Toxicity in male Wistar rat assessed as MCV level at 10 mg/kg, po (reference value: 59.92 +/- 2.2 fL); assay type: organism-based; details: in vivo
# [5] = Toxicity in male Wistar rat assessed as albumin level at 10 mg/kg, po (reference value: […]); assay type: organism-based; details: in vivo
# Acetylcholinesterase [6] = biological target: T1, Acetylcholinesterase (Homo sapiens, UniProt P22303); assay: Inhibition of AChE (unknown origin) by Ellman's method
# [7] = Toxicity in male Wistar rat assessed as total bilirubin level at 10 mg/kg, po (reference value: 0.68 +/- 0.11 mg/dL); assay type: organism-based; details: in vivo
# [8] = Chronic toxicity in male Wistar rat assessed as drug tolerance at 10 mg/kg, po measured after 1 month; assay type: organism-based; details: in vivo, 730 h, time 1 months
# [9] = Toxicity in male Wistar rat assessed as AST level at 10 mg/kg, po (reference value: 78.16 +/- 9.37 U/L); assay type: organism-based; details: in vivo
# [10] = Toxicity in male Wistar rat assessed as ALP level at 10 mg/kg, po (reference value: 137.18 +/- 7.04 U/L); assay type: organism-based; details: in vivo
# [11] = Toxicity in male Wistar rat assessed as MCHC level at 10 mg/kg, po (reference value: 32.52 +/- 2.48 g/dL); assay type: organism-based; details: in vivo
# [12] = Toxicity in male Wistar rat assessed as WBC level at 10 mg/kg, po (reference value: 4.60 +/- 0.61 10^3/cmm); assay type: organism-based; details: in vivo
# [13] = Toxicity in male Wistar rat assessed as histopathological change in kidney at 10 mg/kg, po by H and E staining based analysis; assay type: organism-based; details: in vivo
# [14] = Antioxidant activity assessed as DPPH radical scavenging activity; assay type: functional
# [15] = Toxicity in male Wistar rat assessed as urea level at 10 mg/kg, po (reference value: 29.89 +/- 1.84 mg/dL); assay type: organism-based; details: in vivo
# [16] = Toxicity in male Wistar rat assessed as RBC level measured per million cells at 10 mg/kg, po (reference value: 6.96 +/- 0.45 /cm); assay type: organism-based; details: in vivo
# [17] = Toxicity in male Wistar rat assessed as histological change in renal parenchyma at 10 mg/kg, po by H and E staining based analysis; assay type: organism-based; details: in vivo
# [18] = Toxicity in male Wistar rat assessed as haematocrit level at 10 mg/kg, po (reference value: 39.01 +/- 1.12 %); assay type: organism-based; details: in vivo
# [19] = Toxicity in male Wistar rat assessed as MCH level at 10 mg/kg, po (reference value: 18.50 +/- 1.52 pg); assay type: organism-based; details: in vivo
# [20] = Chronic toxicity in male Wistar rat assessed as negative side effects at 10 mg/kg, po measured after 1 month; assay type: organism-based; details: in vivo, 730 h, time 1 months
# [21] = Toxicity in male Wistar rat assessed as decrease in proliferation of Kupffer cells at 10 mg/kg, po by H and E staining based analysis; assay type: organism-based; details: in vivo
# Cholinesterase = Cholinesterase (Homo sapiens, UniProt P06276); assay: Inhibition of BuChE (unknown origin)
# [22] = Toxicity in male Wistar rat assessed as creatinine level at 10 mg/kg, po (reference value: 0.68 +/- 0.1 mg/dL); assay type: organism-based; details: in vivo
# Acetylcholinesterase [23] = biological target: T1, Acetylcholinesterase; assay: Mixed inhibition of AChE (unknown origin)
# [24] = Toxicity in male Wistar rat assessed as RDW-CV level at 10 mg/kg, po (reference value: 16.93 +/- 1.69 %); assay type: organism-based; details: in vivo
# T1 sequence (P22303 whole entry): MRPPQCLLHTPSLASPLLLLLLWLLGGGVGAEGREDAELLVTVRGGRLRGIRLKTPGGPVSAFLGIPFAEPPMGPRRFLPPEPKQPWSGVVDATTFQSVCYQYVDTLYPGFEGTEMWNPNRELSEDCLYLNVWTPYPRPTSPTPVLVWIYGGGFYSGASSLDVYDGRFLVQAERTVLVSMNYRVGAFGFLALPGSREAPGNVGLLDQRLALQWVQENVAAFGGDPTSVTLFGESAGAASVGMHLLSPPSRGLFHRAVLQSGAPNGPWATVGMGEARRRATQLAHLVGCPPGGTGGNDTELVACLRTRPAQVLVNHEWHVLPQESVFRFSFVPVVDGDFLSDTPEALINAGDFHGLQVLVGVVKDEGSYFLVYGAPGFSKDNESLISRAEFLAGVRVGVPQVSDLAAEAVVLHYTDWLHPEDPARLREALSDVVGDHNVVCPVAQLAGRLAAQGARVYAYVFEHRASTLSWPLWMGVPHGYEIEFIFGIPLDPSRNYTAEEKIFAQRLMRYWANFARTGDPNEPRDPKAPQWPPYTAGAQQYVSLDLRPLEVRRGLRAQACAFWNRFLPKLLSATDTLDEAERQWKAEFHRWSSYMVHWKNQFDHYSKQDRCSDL
# Sequence of Cholinesterase (P06276 whole entry): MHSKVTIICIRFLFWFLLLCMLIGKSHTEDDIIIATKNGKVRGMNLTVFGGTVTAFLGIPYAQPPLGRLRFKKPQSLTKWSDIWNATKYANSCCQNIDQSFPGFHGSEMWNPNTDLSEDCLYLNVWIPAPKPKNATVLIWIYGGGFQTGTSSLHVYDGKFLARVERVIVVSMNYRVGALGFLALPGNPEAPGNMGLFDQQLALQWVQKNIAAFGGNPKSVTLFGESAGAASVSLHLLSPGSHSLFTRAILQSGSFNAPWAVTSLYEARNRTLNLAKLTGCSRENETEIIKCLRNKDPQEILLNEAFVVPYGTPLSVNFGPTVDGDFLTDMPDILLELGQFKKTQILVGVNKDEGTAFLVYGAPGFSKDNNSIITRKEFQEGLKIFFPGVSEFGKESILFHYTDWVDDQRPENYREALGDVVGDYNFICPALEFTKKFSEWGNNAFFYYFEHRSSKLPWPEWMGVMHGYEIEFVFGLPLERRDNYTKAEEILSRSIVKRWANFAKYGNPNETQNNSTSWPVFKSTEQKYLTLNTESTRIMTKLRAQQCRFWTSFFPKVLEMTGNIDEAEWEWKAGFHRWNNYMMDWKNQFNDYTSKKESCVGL
structure (smiles),measurement,setting,value
Cc1ccc(-c2[nH]ncc2-c2cc(OCC(=O)Nc3ccc(Cl)cc3)ccc2O)cc1,Activity,[1],13.28 g/dL
same,Activity,[2],6.91 fL
same,Activity,[3],42.97 U/L
same,Activity,[4],60.31 fL
same,Activity,[5],3.31 g/dL
same,IC50,Acetylcholinesterase [6],2.86 µM
same,Activity,[7],0.63 mg/dL
same,Activity,[8],Non-toxic
same,Activity,[9],76.11 U/L
same,Activity,[10],137.33 U/L
same,Activity,[11],32.59 g/dL
same,Activity,[12],4.86 10^3/mm3
same,Activity,[13],Non-toxic
same,IC50,[14],3.15 µg/mL
same,Activity,[15],30.25 mg/dL
same,Activity,[16],7.14 10^6/mm3
same,Activity,[17],Non-toxic
same,Activity,[18],38.32%
same,Activity,[19],19.51 pg
same,Activity,[20],Non-toxic
same,Activity,[21],Toxic
same,IC50,Cholinesterase,4.26 µM
same,Activity,[22],0.69 mg/dL
same,inhibition,Acetylcholinesterase [23],Active
same,Activity,[24],16.64%
O=C1O[C@H]([C@@H](O)CO)C(O)=C1O [ASCORBIC ACID],IC50,[14],2.85 µg/mL
Cc1ccc(NC(=O)COc2ccc3occ(C(=O)c4ccc(C)cc4)c3c2)cc1,IC50,Acetylcholinesterase [6],59.3 µM
same,IC50,[14],240 µg/mL
Cc1ccc(NC(=O)COc2ccc3occ(C(=O)c4ccc(Cl)cc4)c3c2)cc1,IC50,Acetylcholinesterase [6],11.9 µM
same,IC50,[14],375 µg/mL
Cc1ccc(NC(=O)COc2ccc(O)c(-c3cn[nH]c3-c3ccc(C)cc3)c2)cc1,IC50,Acetylcholinesterase [6],4.76 µM
same,IC50,[14],4.26 µg/mL
same,IC50,Cholinesterase,8.63 µM
Cc1ccc(C(=O)c2coc3ccc(OCC(=O)Nc4ccc(Cl)cc4)cc23)cc1,IC50,Acetylcholinesterase [6],52 µM
same,IC50,[14],732 µg/mL
O=C(COc1ccc(O)c(-c2cn[nH]c2-c2ccccc2)c1)Nc1ccc(Cl)cc1,IC50,Acetylcholinesterase [6],40.5 µM
same,IC50,[14],2.59 µg/mL
O=C(COc1ccc(O)c(-c2cn[nH]c2-c2ccc(Cl)cc2)c1)Nc1ccccc1,IC50,Acetylcholinesterase [6],13.7 µM
same,IC50,[14],5.87 µg/mL
O=C(COc1ccc2occ(C(=O)c3ccccc3)c2c1)Nc1ccc(Cl)cc1,IC50,Acetylcholinesterase [6],40.6 µM
same,IC50,[14],132 µg/mL
O=C(COc1ccc2occ(C(=O)c3ccc(Cl)cc3)c2c1)Nc1ccc(Cl)cc1,IC50,Acetylcholinesterase [6],18.1 µM
same,IC50,[14],630 µg/mL
O=C(COc1ccc(O)c(-c2cn[nH]c2-c2ccc(Cl)cc2)c1)Nc1ccc(Cl)cc1,IC50,Acetylcholinesterase [6],119 µM
same,IC50,[14],3.18 µg/mL
Cc1ccc(-c2[nH]ncc2-c2cc(OCC(=O)Nc3ccccc3)ccc2O)cc1,IC50,Acetylcholinesterase [6],40.8 µM
same,IC50,[14],3.24 µg/mL
Cc1ccc(NC(=O)COc2ccc3occ(C(=O)c4ccccc4)c3c2)cc1,IC50,Acetylcholinesterase [6],21.4 µM
same,IC50,[14],262 µg/mL
Cc1ccc(NC(=O)COc2ccc(O)c(-c3cn[nH]c3-c3ccccc3)c2)cc1,IC50,Acetylcholinesterase [6],29.3 µM
same,IC50,[14],9.93 µg/mL
Cc1ccc(C(=O)c2coc3ccc(OCC(=O)Nc4ccccc4)cc23)cc1,IC50,Acetylcholinesterase [6],3.22 µM
same,IC50,[14],363 µg/mL
same,IC50,Cholinesterase,18.6 µM
O=C(COc1ccc(O)c(-c2cn[nH]c2-c2ccccc2)c1)Nc1ccccc1,IC50,Acetylcholinesterase [6],50.2 µM
same,IC50,[14],3.07 µg/mL
O=C(COc1ccc2occ(C(=O)c3ccc(Cl)cc3)c2c1)Nc1ccccc1,IC50,Acetylcholinesterase [6],0.961 µM
same,IC50,[14],153 µg/mL
same,IC50,Cholinesterase,1.26 µM
Cc1ccc(NC(=O)COc2ccc(O)c(-c3cn[nH]c3-c3ccc(Cl)cc3)c2)cc1,IC50,Acetylcholinesterase [6],43.4 µM
same,IC50,[14],4.94 µg/mL
O=C(COc1ccc2occ(C(=O)c3ccccc3)c2c1)Nc1ccccc1,IC50,Acetylcholinesterase [6],2.07 µM
same,IC50,[14],587 µg/mL
same,IC50,Cholinesterase,3.39 µM
